Laboratory results reported in patent US20100029784A1, “NAPHTHOQUINONE COMPOSITIONS WITH ANTI-AGING, ANTI-INFLAMMATORY AND SKIN EVEN-TONING PROPERTIES” (priority 2008, published 2010).

Tested on: MelanoDerm in vitro skin model (MEL-300B melanoderms)
Assay: In vitro skin model test (MelanoDerm, MatTek), skin-lightening effect by digital image quantification
Format: cell-based
Conditions: for lightening / pixel density (untreated set at 1.00): 14 days, MEL-300B
Protocol: The skin-lightening effect was validated on the in vitro skin model, the MelanoDerm™ carried out by MatTek using MEL-300B melanoderms. This model is very similar in structure and function to the natural skin and has the cell types relevant in the epidermis including the melanocytes, which are responsible for the synthesis of the main pigment melanin. Further information can be found, for example, in http://www.mattek.com/pages/in_vitro_basics. The study was carried out over a period of 14 days at two concentrations of 2,3-dimethylnaphthalene-1,4-dione, 10 μM and 60 μM. 1% Kojic acid was the positive standard and untreated as negative control.
Digital image quantification was achieved by subtracting a standard background value from the pixel content of regions of identical size. The pixel content of untreated cells was set at 1.00. Treatment with topical 1% kojic acid as a positive control gave pixel density of 0.96, or 4% lightening. Treatment with 2,3-dimethylnaphthalene-1,4-dione gave pixel density of 0.66 or 34% lightening at a concentration of 10 μM and 0.38 or 62% lightening at a concentration of 60 μM.

[1] = topical 1% kojic acid, positive control

Structure (SMILES)	lightening [1] [%]	pixel density (untreated set at 1.00) [1]	effectiveness relative to the kojic acid positive standard (concentration of 10 μM vs 1% kojic acid)	lightening (concentration of 10 μM) [%]	pixel density (untreated set at 1.00) (concentration of 10 μM)	effectiveness relative to the kojic acid positive standard (concentration of 60 μM vs 1% kojic acid)	lightening (concentration of 60 μM) [%]	pixel density (untreated set at 1.00) (concentration of 60 μM)
O=c1cc(CO)occ1O [kojic acid, Kojic acid, reference compound]	4	0.96	–	–	–	–	–	–
CC1=C(C)C(=O)c2ccccc2C1=O [2,3-dimethylnaphthalene-1,4-dione]	–	–	about ten times as effective	34	0.66	about fifteen times as effective	62	0.38
